Data reported in US20240336654A1, “ANTIMICROBIAL PEPTIDOMIMETICS” (SPEXIS AG, priority 2021, published 2024).
Where a SMILES comes first, the peptide text is derived from it. Bridges are numbered along the chain shown (N, C = ends). [ ]: non-standard residue; d: D form. Hyp = O=C(O)[C@@H]1C[C@@H](O)CN1; Cit = NC(=O)NCCC[C@H](N)C(=O)O; Pen = CC(C)(S)[C@H](N)C(=O)O; dDab = NCC[C@@H](N)C(=O)O; Orn = NCCC[C@H](N)C(=O)O; Dab = NCC[C@H](N)C(=O)O

How the values were obtained:
Format in all cases: cell-based
[1] = test system: human red blood cells (hRBC); details: red cells of human, 1 h, 200 μg/mL
Outline: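 Peptides at 200 μg/mL incubated 1 h at 37 °C with 20% (v/v) washed human RBC, shaking. Hemolysis from supernatant OD540, expressed as percent of 2.5% Triton X-100 lysis, with PBS as 0%.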

[2] = test system: Escherichia coli ATCC 25922; details: ATCC 25922
Outline: (§1)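 MICs were determined by CLSI broth microdilution in cation-adjusted Mueller-Hinton II broth with about 5×10^5 CFU/mL inoculum. Peptides were tested in two-fold serial dilutions with 0.002% polysorbate 80 final. MIC in μg/mL is the lowest concentration with no visible growth after 18-20 h at 35 °C.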

[3] = test system: Klebsiella pneumoniae SSI3010; details: SSI3010
Outline: as §1

[4] = test system: Escherichia coli MCR-1 Af 45; details: MCR-1 Af 45
Outline: as §1

| Escherichia coli ATCC 25922 MIC [2] [µg/mL] | Klebsiella pneumoniae SSI3010 MIC [3] [µg/mL] | Escherichia coli MCR-1 Af45 MIC [4] [µg/mL] | Compound | Hemolysis at 0.2 g/L [1] [%] |
| --- | --- | --- | --- | --- |
| 0.25 | 0.5 | 0.25 | CC[C@H](C)[C@H](NC(=O)[C@@H]1C[C@@H](O)CN1C(=O)[C@@H](N)C(C)C)C(=O)N[C@@H]1C(=O)N[C@@H](Cc2ccc(O)cc2)C(=O)N[C@@H](CO)C(=O)N[C@@H](CC(N)=O)C(=O)N[C@@H](CCCNC(=N)N)C(=O)N[C@@H](CCN)C(=O)N[C@@H]([C@@H](C)O)C(=O)N[C@H](CCN)C(=O)N[C@@H](CCCCN)C(=O)N[C@@H](CO)C(=O)N[C@@H](CCN)C(=O)N[C@H](C(=O)N[C@@H](Cc2ccc(O)cc2)C(=O)O)CSSC1(C)C [Example 47, Val-Hyp-Ile-Pen-Tyr-Ser-Asn-Arg-Dab-Thr-^DDab-Lys-Ser-Dab-Cys-Tyr] (H-V[Hyp]I[Pen]YSNR[Dab]T[dDab]KS[Dab]CY-OH; disulfide 4-15) | <1 |
| 0.25 | 0.5 | 0.25 | CC[C@H](C)[C@H](NC(=O)[C@@H]1C[C@@H](O)CN1C(=O)[C@@H](N)C(C)C)C(=O)N[C@@H]1C(=O)N[C@@H](Cc2ccc(O)cc2)C(=O)N[C@@H](CCN)C(=O)N[C@@H](CC(N)=O)C(=O)N[C@@H](CCCNC(=N)N)C(=O)N[C@@H](CCN)C(=O)N[C@@H]([C@@H](C)O)C(=O)N[C@H](CCN)C(=O)N[C@@H](CCCCN)C(=O)N[C@@H](CO)C(=O)N[C@@H](CO)C(=O)N[C@H](C(=O)N[C@@H](Cc2ccc(O)cc2)C(=O)O)CSSC1(C)C [Example 48, Val-Hyp-Ile-Pen-Tyr-Dab-Asn-Arg-Dab-Thr-^DDab-Lys-Ser-Ser-Cys-Tyr] (H-V[Hyp]I[Pen]Y[Dab]NR[Dab]T[dDab]KSSCY-OH; disulfide 4-15) | <1 |
| 0.25 | 0.5 | 0.25 | CC[C@H](C)[C@H](NC(=O)[C@@H]1C[C@@H](O)CN1C(=O)[C@@H](N)C(C)C)C(=O)N[C@@H]1C(=O)N[C@@H](Cc2ccc(O)cc2)C(=O)N[C@@H](CCN)C(=O)N[C@@H](CC(N)=O)C(=O)N[C@@H](CCCNC(=N)N)C(=O)N[C@@H](CCN)C(=O)N[C@@H]([C@@H](C)O)C(=O)N[C@H](CCN)C(=O)N[C@@H](CCCCN)C(=O)N[C@@H]([C@@H](C)O)C(=O)N[C@@H](CCCNC(N)=O)C(=O)N[C@H](C(=O)N[C@@H](Cc2ccc(O)cc2)C(=O)O)CSSC1(C)C [Example 49, Val-Hyp-Ile-Pen-Tyr-Dab-Asn-Arg-Dab-Thr-^DDab-Lys-Thr-Cit-Cys-Tyr] (H-V[Hyp]I[Pen]Y[Dab]NR[Dab]T[dDab]KT[Cit]CY-OH; disulfide 4-15) | <1 |
| 0.5 | 1 | 0.5 | CC[C@H](C)[C@@H]1NC(=O)[C@H]([C@@H](C)O)NC(=O)[C@H](CCCCN)NC(=O)[C@@H](CCN)NC(=O)[C@H]([C@@H](C)O)NC(=O)[C@H](CCN)NC(=O)[C@H](CCCNC(=N)N)NC(=O)[C@H](CC(N)=O)NC(=O)[C@H](CCN)NC(=O)[C@H](Cc2ccc(O)cc2)NC(=O)[C@@H](NC(=O)[C@@H](NC(=O)[C@@H]2C[C@@H](O)CN2C(=O)[C@@H](N)C(C)C)[C@@H](C)CC)C(C)(C)SSC[C@@H](C(=O)N[C@@H](Cc2ccc(O)cc2)C(=O)O)NC1=O [Example 50, Val-Hyp-Ile-Pen-Tyr-Dab-Asn-Arg-Dab-Thr-^DDab-Lys-Thr-Ile-Cys-Tyr] (H-V[Hyp]I[Pen]Y[Dab]NR[Dab]T[dDab]KTICY-OH; disulfide 4-15) | <1 |
| 0.25 | 0.5 | 0.25 | CC[C@H](C)[C@H](NC(=O)[C@@H]1C[C@@H](O)CN1C(=O)[C@@H](N)C(C)C)C(=O)N[C@@H]1C(=O)N[C@@H](Cc2ccc(O)cc2)C(=O)N[C@@H](CCN)C(=O)N[C@@H](CC(N)=O)C(=O)N[C@@H](CCCNC(=N)N)C(=O)N[C@@H](CCN)C(=O)N[C@@H]([C@@H](C)O)C(=O)N[C@H](CCN)C(=O)N[C@@H](CCCCN)C(=O)N[C@@H]([C@@H](C)O)C(=O)N[C@@H](CC(N)=O)C(=O)N[C@H](C(=O)N[C@@H](Cc2ccc(O)cc2)C(=O)O)CSSC1(C)C [Example 51, Val-Hyp-Ile-Pen-Tyr-Dab-Asn-Arg-Dab-Thr-^DDab-Lys-Thr-Asn-Cys-Tyr] (H-V[Hyp]I[Pen]Y[Dab]NR[Dab]T[dDab]KTNCY-OH; disulfide 4-15) | <1 |
| 0.25 | 1 | 0.25 | CC[C@H](C)[C@H](NC(=O)[C@@H]1C[C@@H](O)CN1C(=O)[C@@H](N)C(C)C)C(=O)N[C@@H]1C(=O)N[C@@H](Cc2ccc(O)cc2)C(=O)N[C@@H](CCN)C(=O)N[C@@H](CC(N)=O)C(=O)N[C@@H](CCCNC(=N)N)C(=O)N[C@@H](CCN)C(=O)N[C@@H]([C@@H](C)O)C(=O)N[C@H](CCN)C(=O)N[C@@H](CCCCN)C(=O)N[C@@H]([C@@H](C)O)C(=O)N[C@@H](CO)C(=O)N[C@H](C(=O)N[C@@H](Cc2ccc(O)cc2)C(=O)O)CSSC1(C)C [Example 52, Val-Hyp-Ile-Pen-Tyr-Dab-Asn-Arg-Dab-Thr-^DDab-Lys-Thr-Ser-Cys-Tyr] (H-V[Hyp]I[Pen]Y[Dab]NR[Dab]T[dDab]KTSCY-OH; disulfide 4-15) | <1 |
| 0.25 | 1 | 0.25 | CC[C@H](C)[C@H](NC(=O)[C@@H]1C[C@@H](O)CN1C(=O)[C@@H](N)C(C)C)C(=O)N[C@@H]1C(=O)N[C@@H](Cc2ccc(O)cc2)C(=O)N[C@@H](CO)C(=O)N[C@@H](CC(N)=O)C(=O)N[C@@H](CCCNC(=N)N)C(=O)N[C@@H](CCN)C(=O)N[C@@H]([C@@H](C)O)C(=O)N[C@H](CCN)C(=O)N[C@@H](CCCCN)C(=O)N[C@@H](CCCNC(N)=O)C(=O)N[C@@H](CCN)C(=O)N[C@H](C(=O)N[C@@H](Cc2ccc(O)cc2)C(=O)O)CSSC1(C)C [Example 53, Val-Hyp-Ile-Pen-Tyr-Ser-Asn-Arg-Dab-Thr-^DDab-Lys-Cit-Dab-Cys-Tyr] (H-V[Hyp]I[Pen]YSNR[Dab]T[dDab]K[Cit][Dab]CY-OH; disulfide 4-15) | <1 |
| 0.125 | 0.25 | 0.0625 | CC[C@H](C)[C@H](NC(=O)[C@@H]1C[C@@H](O)CN1C(=O)[C@@H](N)C(C)C)C(=O)N[C@@H]1C(=O)N[C@@H](Cc2ccc(O)cc2)C(=O)N[C@@H](CO)C(=O)N[C@@H](CC(N)=O)C(=O)N[C@@H](CCCNC(=N)N)C(=O)N[C@@H](CCN)C(=O)N[C@@H]([C@@H](C)O)C(=O)N[C@H](CCN)C(=O)N[C@@H](CCCCN)C(=O)N[C@@H](CCCNC(=N)N)C(=O)N[C@@H](CCN)C(=O)N[C@H](C(=O)N[C@@H](Cc2ccc(O)cc2)C(=O)O)CSSC1(C)C [Example 54, Val-Hyp-Ile-Pen-Tyr-Ser-Asn-Arg-Dab-Thr-^DDab-Lys-Arg-Dab-Cys-Tyr] (H-V[Hyp]I[Pen]YSNR[Dab]T[dDab]KR[Dab]CY-OH; disulfide 4-15) | <1 |
| 0.25 | 0.5 | 0.25 | CC[C@H](C)[C@H](NC(=O)[C@@H]1C[C@@H](O)CN1C(=O)[C@@H](N)C(C)C)C(=O)N[C@@H]1C(=O)N[C@@H](Cc2ccc(O)cc2)C(=O)N[C@@H](CO)C(=O)N[C@@H](CC(N)=O)C(=O)N[C@@H](CCCNC(=N)N)C(=O)N[C@@H](CCN)C(=O)N[C@@H]([C@@H](C)O)C(=O)N[C@H](CCN)C(=O)N[C@@H](CCCCN)C(=O)N[C@@H](CCCN)C(=O)N[C@@H](CO)C(=O)N[C@H](C(=O)N[C@@H](Cc2ccc(O)cc2)C(=O)O)CSSC1(C)C [Example 55, Val-Hyp-Ile-Pen-Tyr-Ser-Asn-Arg-Dab-Thr-^DDab-Lys-Orn-Ser-Cys-Tyr] (H-V[Hyp]I[Pen]YSNR[Dab]T[dDab]K[Orn]SCY-OH; disulfide 4-15) | <1 |
| 0.25 | 0.25 | 0.125 | CC[C@H](C)[C@H](NC(=O)[C@@H]1C[C@@H](O)CN1C(=O)[C@@H](N)C(C)C)C(=O)N[C@@H]1C(=O)N[C@@H](Cc2ccc(O)cc2)C(=O)N[C@@H](CCN)C(=O)N[C@@H](CC(N)=O)C(=O)N[C@@H](CCCNC(=N)N)C(=O)N[C@@H](CCN)C(=O)N[C@@H]([C@@H](C)O)C(=O)N[C@H](CCN)C(=O)N[C@@H](CCCCN)C(=O)N[C@@H](CCN)C(=O)N[C@@H](CO)C(=O)N[C@H](C(=O)N[C@@H](Cc2ccc(O)cc2)C(=O)O)CSSC1(C)C [Example 56, Val-Hyp-Ile-Pen-Tyr-Dab-Asn-Arg-Dab-Thr-^DDab-Lys-Dab-Ser-Cys-Tyr] (H-V[Hyp]I[Pen]Y[Dab]NR[Dab]T[dDab]K[Dab]SCY-OH; disulfide 4-15) | <1 |
| 0.125 | 0.25 | 0.125 | CC[C@H](C)[C@H](NC(=O)[C@@H]1C[C@@H](O)CN1C(=O)[C@@H](N)C(C)C)C(=O)N[C@@H]1C(=O)N[C@@H](Cc2ccc(O)cc2)C(=O)N[C@@H](CO)C(=O)N[C@@H](CC(N)=O)C(=O)N[C@@H](CCCNC(=N)N)C(=O)N[C@@H](CCN)C(=O)N[C@@H]([C@@H](C)O)C(=O)N[C@H](CCN)C(=O)N[C@@H](CCCCN)C(=O)N[C@@H](CCN)C(=O)N[C@H](CCN)C(=O)N[C@H](C(=O)N[C@@H](Cc2ccc(O)cc2)C(=O)O)CSSC1(C)C [Example 58, Val-Hyp-Ile-Pen-Tyr-Ser-Asn-Arg-Dab-Thr-^DDab-Lys-Dab-^DDab-Cys-Tyr] (H-V[Hyp]I[Pen]YSNR[Dab]T[dDab]K[Dab][dDab]CY-OH; disulfide 4-15) | <1 |
